# Experimental data: US6046171A, “6,11-bridged erythromycin derivatives” (priority 1998, dated 2000)
# Legend:
# Format in all cases: cell-based
# [1] = system: Staphylococcus aureus ATCC 6538P; assay: in vitro antibacterial MIC, agar dilution (BHI agar, Steers replicator); conditions: organism code AA; 35-37° C., 20 to 24 hours; unit assumed
# Protocol: (§1) Representative compounds of the present invention were assayed in vitro for antibacterial activity as follows: Twelve petri dishes containing successive aqueous dilutions of the test compound mixed with 10 mL of sterilized Brain Heart Infusion (BHI) agar (Difco 0418-01-5) were prepared. Each plate was inoculated with 1:100 (or 1:10 for slow-growing strains, such as Micrococcus and Streptococcus) dilutions of up to 32 different microorganisms, using a Steers replicator block. […] In addition, a control plate, using BHI agar containing no test compound, was prepared and incubated at the beginning and end of each test.
# (§2) An additional plate containing a compound having known susceptibility patterns for the organisms being tested and belonging to the same antibiotic class as the test compound was also prepared and incubated as a further control, as well as to provide test-to-test comparability.
# (§3) After incubation, each plate was visually inspected. The minimum inhibitory concentration (MIC) was defined as the lowest concentration of drug yielding no growth, a slight haze, or sparsely isolated colonies on the inoculum spot as compared to the growth control.
# [2] = system: Enterococcus faecium ATCC 8Q43; assay: in vitro antibacterial MIC, agar dilution; conditions: organism code II; 35-37° C., 20 to 24 hours; unit assumed
# Protocol: as §1, §2, §3
# Escherichia coli DC-2 = assay: in vitro antibacterial MIC, agar dilution; conditions: organism code SS; 35-37° C., 20 to 24 hours; unit assumed
# Protocol: as §1, §2, §3
# Escherichia coli JUHL = assay: in vitro antibacterial MIC, agar dilution; conditions: organism code QQ; 35-37° C., 20 to 24 hours; unit assumed
# Protocol: as §1, §2, §3
# Escherichia coli SS = assay: in vitro antibacterial MIC, agar dilution; conditions: organism code RR; 35-37° C., 20 to 24 hours; unit assumed
# Protocol: as §1, §2, §3
# [3] = system: Haemophilis Influenzae DILL AMP R; assay: in vitro antibacterial MIC, agar dilution; conditions: organism code WW; 35-37° C., 20 to 24 hours; unit assumed
# Protocol: as §1, §2, §3
# [4] = system: Micrococcus luteus ATCC 4698; assay: in vitro antibacterial MIC, agar dilution; conditions: organism code PP; 35-37° C., 20 to 24 hours; unit assumed
# Protocol: as §1, §2, §3
# [5] = system: Micrococcus luteus ATCC 9341; assay: in vitro antibacterial MIC, agar dilution; conditions: organism code OO; 35-37° C., 20 to 24 hours; unit assumed
# Protocol: as §1, §2, §3
# [6] = system: Mycobacterium smegmatis ATCC 114; assay: in vitro antibacterial MIC, agar dilution; conditions: organism code UU; 35-37° C., 20 to 24 hours; unit assumed
# Protocol: as §1, §2, §3
# [7] = system: Nocardia Asteroides ATCC9970; assay: in vitro antibacterial MIC, agar dilution; conditions: organism code VV; 35-37° C., 20 to 24 hours; unit assumed
# Protocol: as §1, §2, §3
# [8] = system: Staphylococcus aureus 1775; assay: in vitro antibacterial MIC, agar dilution; conditions: organism code GG; 35-37° C., 20 to 24 hours; unit assumed
# Protocol: as §1, §2, §3
# [9] = system: Staphylococcus aureus A-5278; assay: in vitro antibacterial MIC, agar dilution; conditions: organism code CC; 35-37° C., 20 to 24 hours; unit assumed
# Protocol: as §1, §2, §3
# [10] = system: Staphylococcus aureus A5177; assay: in vitro antibacterial MIC, agar dilution; conditions: organism code BB; 35-37° C., 20 to 24 hours; unit assumed
# Protocol: as §1, §2, §3
# [11] = system: Staphylococcus aureus CMX 553; assay: in vitro antibacterial MIC, agar dilution; conditions: organism code FF; 35-37° C., 20 to 24 hours; unit assumed
# Protocol: as §1, §2, §3
# [12] = system: Staphylococcus aureus CMX 642A; assay: in vitro antibacterial MIC, agar dilution; conditions: organism code DD; 35-37° C., 20 to 24 hours; unit assumed
# Protocol: as §1, §2, §3
# [13] = system: Staphylococcus aureus NCTC10649M; assay: in vitro antibacterial MIC, agar dilution; conditions: organism code EE; 35-37° C., 20 to 24 hours; unit assumed
# Protocol: as §1, §2, §3
# [14] = system: Staphylococcus epidermidis 3519; assay: in vitro antibacterial MIC, agar dilution; conditions: organism code HH; 35-37° C., 20 to 24 hours; unit assumed
# Protocol: as §1, §2, §3
# [15] = system: Streptococcus Pheumoniae 5649; assay: in vitro antibacterial MIC, agar dilution; conditions: organism code ZZA; 35-37° C., 20 to 24 hours; unit assumed
# Protocol: as §1, §2, §3
# [16] = system: Streptococcus Pheumoniae ATCC6303; assay: in vitro antibacterial MIC, agar dilution; conditions: organism code XX; 35-37° C., 20 to 24 hours; unit assumed
# Protocol: as §1, §2, §3
# [17] = system: Streptococcus Pheumoniae GYR 1171; assay: in vitro antibacterial MIC, agar dilution; conditions: organism code YY; 35-37° C., 20 to 24 hours; unit assumed
# Protocol: as §1, §2, §3
# [18] = system: Streptococcus agalactiae CMX 508; assay: in vitro antibacterial MIC, agar dilution; conditions: organism code KK; 35-37° C., 20 to 24 hours; unit assumed
# Protocol: as §1, §2, §3
# [19] = system: Streptococcus bovis A-5169; assay: in vitro antibacterial MIC, agar dilution; conditions: organism code JJ; 35-37° C., 20 to 24 hours; unit assumed
# Protocol: as §1, §2, §3
# [20] = system: Streptococcus pyogenes 930; assay: in vitro antibacterial MIC, agar dilution; conditions: organism code MM; 35-37° C., 20 to 24 hours; unit assumed
# Protocol: as §1, §2, §3
# [21] = system: Streptococcus pyogenes EES61; assay: in vitro antibacterial MIC, agar dilution; conditions: organism code LL; 35-37° C., 20 to 24 hours; unit assumed
# Protocol: as §1, §2, §3
# [22] = system: Streptococcus pyogenes PIU 2548; assay: in vitro antibacterial MIC, agar dilution; conditions: organism code NN; 35-37° C., 20 to 24 hours; unit assumed
# Protocol: as §1, §2, §3
# Candida albicans CCH 442 = assay: in vitro MIC, agar dilution; conditions: organism code TT; 35-37° C., 20 to 24 hours; unit assumed
# Protocol: as §1, §2, §3
# [23] = system: Streptococcus Pheumoniae 5979; assay: in vitro antibacterial MIC, agar dilution; conditions: organism code ZZ; 35-37° C., 20 to 24 hours; unit assumed
# Protocol: as §1, §2, §3
Compound,MIC [1],MIC [2],MIC (Escherichia coli DC-2),MIC (Escherichia coli JUHL),MIC (Escherichia coli SS),MIC [3],MIC [4],MIC [5],MIC [6],MIC [7],MIC [8],MIC [9],MIC [10],MIC [11],MIC [12],MIC [13],MIC [14],MIC [15],MIC [16],MIC [17],further results
"CC[C@H]1OC(=O)[C@H](C)[C@@H](O[C@H]2C[C@@](C)(OC)[C@@H](O)[C@H](C)O2)[C@H](C)[C@@H](O[C@@H]2O[C@H](C)C[C@H](N(C)C)[C@H]2O)[C@](C)(O)C[C@@H](C)C(=O)[C@H](C)[C@@H](O)[C@]1(C)O [Ery. A, Erythromycin A, reference compound]",0.2 µg/mL,0.05 µg/mL,> 100 µg/mL,> 100 µg/mL,0.78 µg/mL,4 µg/mL,0.2 µg/mL,0.05 µg/mL,3.1 µg/mL,0.1 µg/mL,> 100 µg/mL,> 100 µg/mL,3.1 µg/mL,0.39 µg/mL,0.39 µg/mL,0.39 µg/mL,0.39 µg/mL,16 µg/mL,0.06 µg/mL,0.06 µg/mL,MIC [18]: 0.05 µg/mL; MIC [19]: 0.02 µg/mL; MIC [20]: > 100 µg/mL; MIC [21]: 0.05 µg/mL; MIC [22]: 6.2 µg/mL; MIC (Candida albicans CCH 442): > 100 µg/mL
CC[C@H]1OC(=O)[C@H](C)[C@@H](O[C@H]2C[C@@](C)(OC)[C@@H](O)[C@H](C)O2)[C@H](C)[C@@H](O[C@@H]2O[C@H](C)C[C@H](N(C)C)[C@H]2O)[C@@]2(C)C[C@@H](C)C(=O)[C@H](C)[C@H]3N(CC=CCO2)C(=O)O[C@]13C [Example 14],0.2 µg/mL,0.1 µg/mL,> 100 µg/mL,50 µg/mL,0.78 µg/mL,8 µg/mL,0.39 µg/mL,0.05 µg/mL,0.78 µg/mL,0.05 µg/mL,> 100 µg/mL,> 100 µg/mL,3.1 µg/mL,0.2 µg/mL,0.2 µg/mL,0.39 µg/mL,0.2 µg/mL,16 µg/mL,0.03 µg/mL,0.03 µg/mL,MIC [23]: > 128 µg/mL; MIC [18]: 0.05 µg/mL; MIC [19]: 0.05 µg/mL; MIC [20]: > 100 µg/mL; MIC [21]: 0.05 µg/mL; MIC [22]: 6.2 µg/mL; MIC (Candida albicans CCH 442): > 100 µg/mL
CC[C@H]1OC(=O)[C@H](C)[C@@H](O[C@H]2C[C@@](C)(OC)[C@@H](O)[C@H](C)O2)[C@H](C)[C@@H](O[C@@H]2O[C@H](C)C[C@H](N(C)C)[C@H]2O)[C@@]2(C)C[C@@H](C)C(=O)[C@H](C)[C@H]3N(CC(=O)CC=CCO2)C(=O)O[C@]13C [Example 20],3.1 µg/mL,0.2 µg/mL,> 100 µg/mL,> 100 µg/mL,3.1 µg/mL,8 µg/mL,0.78 µg/mL,0.2 µg/mL,0.39 µg/mL,0.2 µg/mL,> 100 µg/mL,> 100 µg/mL,12.5 µg/mL,3.1 µg/mL,3.1 µg/mL,3.1 µg/mL,3.1 µg/mL,1 µg/mL,0.25 µg/mL,0.25 µg/mL,MIC [23]: 128 µg/mL; MIC [18]: 0.39 µg/mL; MIC [19]: 0.2 µg/mL; MIC [20]: 100 µg/mL; MIC [21]: 0.2 µg/mL; MIC [22]: 25 µg/mL; MIC (Candida albicans CCH 442): > 100 µg/mL
CC[C@H]1OC(=O)[C@H](C)[C@@H](O[C@H]2C[C@@](C)(OC)[C@@H](O)[C@H](C)O2)[C@H](C)[C@@H](O[C@@H]2O[C@H](C)C[C@H](N(C)C)[C@H]2O)[C@@]2(C)C[C@@H](C)C(=O)[C@H](C)[C@H]3N(CCNC(=O)c4ccccc4CC=CCO2)C(=O)O[C@]13C [Example 24],0.78 µg/mL,0.2 µg/mL,> 100 µg/mL,100 µg/mL,6.2 µg/mL,16 µg/mL,1.56 µg/mL,0.1 µg/mL,0.39 µg/mL,0.1 µg/mL,> 100 µg/mL,> 100 µg/mL,25 µg/mL,0.78 µg/mL,1.56 µg/mL,1.56 µg/mL,1.56 µg/mL,16 µg/mL,0.03 µg/mL,0.03 µg/mL,MIC [23]: 128 µg/mL; MIC [18]: 0.1 µg/mL; MIC [19]: 0.1 µg/mL; MIC [20]: > 100 µg/mL; MIC [21]: 0.1 µg/mL; MIC [22]: 12.5 µg/mL; MIC (Candida albicans CCH 442): > 100 µg/mL
CC[C@H]1OC(=O)[C@H](C)C(=O)[C@H](C)[C@@H](O[C@@H]2O[C@H](C)C[C@H](N(C)C)[C@H]2O)[C@@]2(C)C[C@@H](C)C(=O)[C@H](C)[C@H]3N(CCNC(=O)c4ccccc4C=CCO2)C(=O)O[C@]13C [Example 21],1.56 µg/mL,0.2 µg/mL,> 100 µg/mL,> 100 µg/mL,1.56 µg/mL,64 µg/mL,0.39 µg/mL,0.2 µg/mL,6.2 µg/mL,0.39 µg/mL,> 100 µg/mL,> 100 µg/mL,1.56 µg/mL,3.1 µg/mL,3.1 µg/mL,3.1 µg/mL,1.56 µg/mL,2 µg/mL,0.25 µg/mL,0.25 µg/mL,MIC [23]: > 128 µg/mL; MIC [18]: 0.1 µg/mL; MIC [19]: 0.1 µg/mL; MIC [20]: > 100 µg/mL; MIC [21]: 0.1 µg/mL; MIC [22]: 0.78 µg/mL; MIC (Candida albicans CCH 442): > 100 µg/mL
CC[C@H]1OC(=O)[C@H](C)[C@@H](O[C@H]2C[C@@](C)(OC)[C@@H](O)[C@H](C)O2)[C@H](C)[C@@H](O[C@@H]2O[C@H](C)C[C@H](N(C)C)[C@H]2O)[C@@]2(C)C[C@@H](C)C(=O)[C@H](C)[C@H]3N(CC(O)CCCCO2)C(=O)O[C@]13C (some centres unmarked) [Example 22],1.56 µg/mL,0.2 µg/mL,> 100 µg/mL,100 µg/mL,0.78 µg/mL,4 µg/mL,0.39 µg/mL,0.1 µg/mL,0.78 µg/mL,0.1 µg/mL,> 100 µg/mL,> 100 µg/mL,12.5 µg/mL,1.56 µg/mL,1.56 µg/mL,1.56 µg/mL,1.56 µg/mL,16 µg/mL,0.06 µg/mL,0.06 µg/mL,MIC [23]: > 128 µg/mL; MIC [18]: 0.1 µg/mL; MIC [19]: 0.05 µg/mL; MIC [20]: > 100 µg/mL; MIC [21]: 0.1 µg/mL; MIC [22]: 12.5 µg/mL; MIC (Candida albicans CCH 442): > 100 µg/mL
